The source made the active and inactive calls. No cut-off for these calls is given here.
Key:
L1210 = experiment: Antiproliferative activity against mouse L1210 cells after 48 hrs by Coulter counter method; assay type: functional, cell-based; details: L1210, 48 h
[1] = Antiproliferative activity against human HMEC1 cells after 4 days by Coulter counter method; assay type: functional, cell-based; details: HMEC-1, 96 h
HeLa = experiment: Antiproliferative activity against human HeLa cells after 4 days by Coulter counter method; assay type: functional, cell-based; details: 96 h
[2] = Antiproliferative activity against bovine BAEC cells after 3 days by Coulter counter method; assay type: functional, cell-based; details: Bos taurus, 72 h
CCRF-CEM = experiment: Antiproliferative activity against human CEM cells after 96 hrs by Coulter counter method; assay type: functional, cell-based
[3] = biological target: DNA topoisomerase 2-alpha (Homo sapiens) (UniProt P11388); experiment: Stabilization of recombinant human topoisomerase 2-pBR322 DNA cleavage complex assessed as linear DNA formation at 10 uM after 60 mins by agarose gel electrophoresis
Sequence of DNA topoisomerase 2-alpha (Homo sapiens) (P11388 whole entry): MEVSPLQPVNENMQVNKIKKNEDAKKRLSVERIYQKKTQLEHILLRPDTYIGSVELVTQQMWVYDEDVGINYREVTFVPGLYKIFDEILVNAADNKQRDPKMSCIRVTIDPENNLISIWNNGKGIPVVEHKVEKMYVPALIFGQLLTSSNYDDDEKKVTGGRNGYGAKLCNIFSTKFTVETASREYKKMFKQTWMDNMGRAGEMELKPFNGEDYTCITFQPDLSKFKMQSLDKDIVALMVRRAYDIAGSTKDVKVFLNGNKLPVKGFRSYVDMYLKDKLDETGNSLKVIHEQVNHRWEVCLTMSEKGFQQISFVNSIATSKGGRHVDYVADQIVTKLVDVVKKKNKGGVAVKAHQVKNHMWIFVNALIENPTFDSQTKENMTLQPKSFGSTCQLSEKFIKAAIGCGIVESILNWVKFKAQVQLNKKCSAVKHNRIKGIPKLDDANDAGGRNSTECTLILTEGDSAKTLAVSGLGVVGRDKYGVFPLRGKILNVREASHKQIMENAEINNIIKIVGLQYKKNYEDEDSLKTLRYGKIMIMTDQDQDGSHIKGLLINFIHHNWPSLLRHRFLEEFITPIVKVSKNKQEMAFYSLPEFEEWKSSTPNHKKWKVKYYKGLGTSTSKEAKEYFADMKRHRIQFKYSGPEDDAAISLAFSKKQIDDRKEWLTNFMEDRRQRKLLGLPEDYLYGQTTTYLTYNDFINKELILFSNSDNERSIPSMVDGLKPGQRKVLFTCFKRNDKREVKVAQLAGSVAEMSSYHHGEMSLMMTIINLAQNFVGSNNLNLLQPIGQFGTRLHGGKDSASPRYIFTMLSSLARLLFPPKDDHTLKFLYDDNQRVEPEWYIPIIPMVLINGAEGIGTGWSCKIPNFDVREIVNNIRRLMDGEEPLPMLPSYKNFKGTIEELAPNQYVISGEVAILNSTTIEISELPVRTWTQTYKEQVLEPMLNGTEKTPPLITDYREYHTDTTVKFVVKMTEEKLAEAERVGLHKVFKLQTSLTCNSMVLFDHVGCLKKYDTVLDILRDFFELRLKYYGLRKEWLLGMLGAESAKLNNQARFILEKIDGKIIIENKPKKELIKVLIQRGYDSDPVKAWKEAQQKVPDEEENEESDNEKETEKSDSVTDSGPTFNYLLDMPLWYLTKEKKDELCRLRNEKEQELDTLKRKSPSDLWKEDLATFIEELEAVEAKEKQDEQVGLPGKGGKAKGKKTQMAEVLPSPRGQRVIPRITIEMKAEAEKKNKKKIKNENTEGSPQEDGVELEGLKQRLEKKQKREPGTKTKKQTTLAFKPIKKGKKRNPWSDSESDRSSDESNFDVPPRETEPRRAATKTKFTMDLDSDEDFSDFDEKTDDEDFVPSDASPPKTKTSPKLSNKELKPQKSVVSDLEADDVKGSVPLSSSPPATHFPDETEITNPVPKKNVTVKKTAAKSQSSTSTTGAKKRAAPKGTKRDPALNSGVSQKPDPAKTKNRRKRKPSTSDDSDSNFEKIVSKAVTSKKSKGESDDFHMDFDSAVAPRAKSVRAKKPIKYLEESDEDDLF

[4] = biological target: T1, NAD-dependent protein deacetylase sirtuin-1 (Homo sapiens) (UniProt Q96EB6); experiment: Inhibition of SIRT1 (unknown origin) using KI177 as substrate preincubated at 200 uM for 5 mins before substrate addition measured after 1 hr by Fluor de Lys fluorescence assay
T1 sequence (whole entry): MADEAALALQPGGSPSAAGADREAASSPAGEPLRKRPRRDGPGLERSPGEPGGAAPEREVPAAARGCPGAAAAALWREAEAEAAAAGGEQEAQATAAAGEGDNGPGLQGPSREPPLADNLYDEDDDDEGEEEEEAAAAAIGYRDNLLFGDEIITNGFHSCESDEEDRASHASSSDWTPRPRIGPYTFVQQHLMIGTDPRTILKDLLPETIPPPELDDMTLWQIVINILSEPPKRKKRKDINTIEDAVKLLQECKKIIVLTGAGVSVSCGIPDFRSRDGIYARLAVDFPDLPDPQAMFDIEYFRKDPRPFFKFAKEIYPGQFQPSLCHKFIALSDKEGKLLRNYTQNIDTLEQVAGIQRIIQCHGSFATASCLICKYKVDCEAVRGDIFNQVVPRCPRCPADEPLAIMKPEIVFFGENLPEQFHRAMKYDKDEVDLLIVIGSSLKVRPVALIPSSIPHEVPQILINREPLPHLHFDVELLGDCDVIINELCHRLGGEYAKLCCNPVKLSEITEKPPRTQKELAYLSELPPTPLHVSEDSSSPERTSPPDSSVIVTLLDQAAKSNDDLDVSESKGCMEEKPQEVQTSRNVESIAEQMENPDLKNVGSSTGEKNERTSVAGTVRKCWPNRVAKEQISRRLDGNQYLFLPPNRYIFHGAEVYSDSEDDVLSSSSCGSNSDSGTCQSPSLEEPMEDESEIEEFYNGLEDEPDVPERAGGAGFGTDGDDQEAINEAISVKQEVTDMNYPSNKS

[5] = biological target: DNA topoisomerase 2-alpha (Homo sapiens) (UniProt P11388); experiment: Inhibition of recombinant human topoisomerase 2-mediated relaxation of supercoiled pBR322 DNA at 50 uM after 60 mins by agarose gel electrophoresis
[6] = biological target: T2, NAD-dependent protein deacetylase sirtuin-2 (Homo sapiens) (UniProt Q8IXJ6); experiment: Inhibition of SIRT2 (unknown origin) using KI179 as substrate preincubated at 200 uM for 5 mins before substrate addition measured after 1 hr by Fluor de Lys fluorescence assay
T2 sequence (whole entry): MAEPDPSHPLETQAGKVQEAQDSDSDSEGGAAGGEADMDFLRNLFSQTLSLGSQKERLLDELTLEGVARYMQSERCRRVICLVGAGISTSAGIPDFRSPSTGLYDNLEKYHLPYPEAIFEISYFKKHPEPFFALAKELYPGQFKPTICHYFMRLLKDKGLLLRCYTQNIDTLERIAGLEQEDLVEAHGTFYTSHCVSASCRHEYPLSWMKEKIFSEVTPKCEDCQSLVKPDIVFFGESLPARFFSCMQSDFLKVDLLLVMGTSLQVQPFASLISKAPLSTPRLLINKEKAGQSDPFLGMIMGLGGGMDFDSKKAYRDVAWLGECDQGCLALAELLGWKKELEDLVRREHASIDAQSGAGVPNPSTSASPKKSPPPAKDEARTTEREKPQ

[7] = biological target: T3, DNA topoisomerase 1 (Homo sapiens) (UniProt P11387); experiment: Inhibition of recombinant human topoisomerase 1-mediated relaxation of supercoiled pBR322 DNA at 10 uM after 60 mins by agarose gel electrophoresis
T3 sequence (whole entry): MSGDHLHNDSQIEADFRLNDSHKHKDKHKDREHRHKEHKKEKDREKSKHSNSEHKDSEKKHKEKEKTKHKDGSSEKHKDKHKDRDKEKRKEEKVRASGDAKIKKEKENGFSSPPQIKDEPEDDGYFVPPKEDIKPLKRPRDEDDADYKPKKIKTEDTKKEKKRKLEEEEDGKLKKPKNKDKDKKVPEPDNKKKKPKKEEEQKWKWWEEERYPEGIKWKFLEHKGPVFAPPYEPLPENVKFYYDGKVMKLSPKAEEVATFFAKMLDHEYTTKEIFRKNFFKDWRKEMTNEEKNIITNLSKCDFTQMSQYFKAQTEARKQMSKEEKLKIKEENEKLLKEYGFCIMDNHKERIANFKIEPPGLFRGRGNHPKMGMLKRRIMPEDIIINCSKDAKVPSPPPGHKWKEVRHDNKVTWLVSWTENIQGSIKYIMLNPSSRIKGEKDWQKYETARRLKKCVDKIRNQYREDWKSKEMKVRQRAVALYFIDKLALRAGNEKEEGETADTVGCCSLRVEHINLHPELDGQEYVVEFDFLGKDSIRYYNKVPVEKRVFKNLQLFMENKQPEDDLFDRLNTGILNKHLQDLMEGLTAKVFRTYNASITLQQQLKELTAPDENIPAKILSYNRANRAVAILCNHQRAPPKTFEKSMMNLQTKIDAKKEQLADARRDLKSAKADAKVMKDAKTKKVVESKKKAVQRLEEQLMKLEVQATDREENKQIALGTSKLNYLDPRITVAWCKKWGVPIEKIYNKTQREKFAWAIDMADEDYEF

[8] = biological target: T3, DNA topoisomerase 1 (Homo sapiens); experiment: Stabilization of recombinant human topoisomerase 1-pBR322 DNA cleavage complex assessed as linear DNA formation at 0.5 uM after 60 mins by agarose gel electrophoresis
[9] = biological target: DNA topoisomerase 2-alpha (Homo sapiens) (UniProt P11388); experiment: Inhibition of recombinant human topoisomerase 2-mediated relaxation of supercoiled pBR322 DNA after 60 mins by agarose gel electrophoresis
[10] = biological target: DNA topoisomerase 2-alpha (Homo sapiens) (UniProt P11388); experiment: Stabilization of recombinant human topoisomerase 2-pBR322 DNA cleavage complex assessed as linear DNA formation at 100 uM after 60 mins by agarose gel electrophoresis
[11] = biological target: DNA topoisomerase 2-alpha (Homo sapiens) (UniProt P11388); experiment: Inhibition of recombinant human topoisomerase 2-mediated relaxation of supercoiled pBR322 DNA at 10 uM after 60 mins by agarose gel electrophoresis

For COc1ccc(/C=C\c2cc(OC)c(OC)c(OC)c2)cc1OP(=O)(O)O [FOSBRETABULIN DISODIUM], the IC50 (L1210) was 82 nM, the IC50 [1] was 2.9 nM and the IC50 (HeLa) was 79 nM. The IC50 [2] was 3.9 nM and the IC50 (CCRF-CEM) was 95 nM.

In the case of COc1cc(NS(C)(=O)=O)ccc1Nc1c2ccccc2nc2ccccc12, the Activity [3] is reported as “Active”.

COc1ccc2c3c(c4cc(OC)c(OC)cc4c2c1)CN1CCCCC1C3 (racemic) showed an IC50 (L1210) of 71 nM, an IC50 [1] of 29 nM and an IC50 (HeLa) of 76 nM. It also gave an IC50 [2] of 9 nM and an IC50 (CCRF-CEM) of 119 nM.

With COc1ccc2c3c(c4cc(OC)c(OC)cc4c2c1)CN1CCCC[C@H]1C3 the IC50 (L1210) was 111 nM, the inhibition [4] was 10% and the inhibition [5] was “Active”. The inhibition [6] was 41%, the inhibition [7] was “Active” and the IC50 [1] was 82 nM. For the same compound, the IC50 (HeLa) was 182 nM, the Activity [8] was “inactive” and the inhibition [9] was “Dose-dependent effect”. The Activity [10] was “inactive”, the inhibition [11] was “inactive” and the IC50 [2] was 23 nM. For the same compound, the IC50 (CCRF-CEM) was 201 nM.

In the case of COc1ccc2c3c(c4cc(OC)c(OC)cc4c2c1)CN1CCCC[C@@H]1C3, the IC50 (L1210) is reported as 19 nM, the inhibition [4] is reported as 12% and the inhibition [5] is reported as “Active”. The inhibition [6] was 65%, the inhibition [7] was “Active” and the IC50 [1] was 7.4 nM. The IC50 (HeLa) was 66 nM, the Activity [8] was “inactive” and the inhibition [9] was “Dose-dependent effect”. The Activity [10] was “inactive”, the inhibition [11] was “inactive” and the IC50 [2] was 23 nM. The IC50 (CCRF-CEM) was 185 nM.

In the case of CC[C@@]1(O)C(=O)OCc2c1cc1n(c2=O)Cc2cc3ccccc3nc2-1, the Activity [8] is reported as “Active”.

Reference: ChEMBL document CHEMBL3407358, “Boehmeriasin A as new lead compound for the inhibition of topoisomerases and SIRT2” (Eur J Med Chem, 2015)
